Experimental data published in patent US6300501A, “Histidine-(N-benzyl glycinamide) inhibitors of protein farnesyl transferase” (Warner-Lambert Company, priority 1998, dated 2001).
Where two headings read alike, the source gives them in different places.

How the values were obtained:
[1] = test system: ras farnesylation in ras-transformed cells; assay: Gel shift assay; assay type: cell-based; settings: ras-transformed cells, 18-hour incubation; read-out: Gel Shift (μM) MED (minimal effective dose to observe inhibition of ras farnesylation)
Method in brief: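 Ras-transformed cells (2×10^6 per condition) treated with farnesylation inhibitor at varying concentrations for 18 h. Ras immunoprecipitated from lysates with Y13-259, resolved on 14% SDS gels and detected by pan-ras Western blot with ECL, farnesylated and unfarnesylated ras separating by mobility shift.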

[2] = test system: H61 tumor cell xenografts; assay: In vivo assay: H61 tumor xenografts in nude mice
Protocol: The compound described in Example 15 was tested for its ability to inhibit the growth of H61 tumor cell xenografts in nude mice. H61 Cells are fibroblasts transformed to a malignant state by transfection with an activated mutant form of human h-ras. Ten to 30 mg fragments of H61 tumors were inoculated SC (subcutaneously) in the axial region into female nude mice with a trocar needle on day zero of the experiment. The mice were randomized to treatment groups and were then given SC injections of the compound described in Example 15 suspended in 10% cremofor/10% ethanol/80% water twice each day on Days 3-17 of the experiment. At Day 12 of the experiment, the median control tumor burden was 1958 mg as assessed by caliper measurements.

[3] = test system: H61 cells: NIH transformed 3T3 H-ras cells; assay: Clonogenic assay (6 well plates, soft agar); assay type: cell-based; settings: colonies counted after Day 13, read-out: Clonogenic Assay IC50
Method in brief: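 Soft-agar colony formation: cells seeded in 0.3% agar top layer with 20% calf serum over a 0.6% agar base, drug or DMSO added at 4 µL per mL agar/medium. Incubated at 37 °C, 5% CO2; INT (1 mg/mL) added on day 13 to stain colonies.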

[4] = target: T1, SF9 affinity purified rat farnesyl protein transferase (Rattus norvegicus, UniProt Q02293+Q04631); assay: PFT inhibitory activity (radiolabeled farnesyl pyrophosphate, streptavidin bead assay); assay type: biochemical
T1 construct: made in house; host or cells: Sf9 insect cells (baculovirus system inferred from b7)
T1 sequence (Q02293 whole entry, one chain of several): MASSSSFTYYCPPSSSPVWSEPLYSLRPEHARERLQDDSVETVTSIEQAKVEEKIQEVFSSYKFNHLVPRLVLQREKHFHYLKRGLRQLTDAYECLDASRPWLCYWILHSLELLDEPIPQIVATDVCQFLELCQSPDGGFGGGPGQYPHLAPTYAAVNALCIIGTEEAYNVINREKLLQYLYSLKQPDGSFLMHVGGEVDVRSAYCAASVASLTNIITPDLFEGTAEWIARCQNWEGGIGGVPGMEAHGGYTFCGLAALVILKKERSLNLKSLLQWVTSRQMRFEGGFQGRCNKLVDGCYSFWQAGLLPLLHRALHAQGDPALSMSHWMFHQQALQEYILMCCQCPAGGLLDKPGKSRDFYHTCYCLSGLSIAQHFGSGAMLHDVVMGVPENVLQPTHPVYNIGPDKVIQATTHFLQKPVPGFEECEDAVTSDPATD
Method in brief: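 HEPES pH 7.4 with 5 mM potassium phosphate (also run without), 20 μM ZnCl2, 5 mM DTT, 5 mM MgCl2, 0.1% PEG 8000; [3H]farnesyl pyrophosphate 134 nM and biotinyl-Ahe-TKCVIM peptide 0.2 μM final. Incubated 30 min at 30° C, stopped with acidic magnesium acetate/streptavidin bead buffer; bead-bound radioactivity counted.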

[5] = test system: EJ-1 human bladder carcinoma, HT1080 human fibrosarcoma and human colon carcinoma xenografts; settings: 100 mg/kg; cited from earlier work
[6] = test system: human lung carcinoma with K-ras mutation and p53 deletion; settings: nude mice; cited from earlier work
[7] = test system: mammary and salivary carcinomas; settings: daily administration; cited from earlier work
[8] = HEPES buffer pH 7.4, without 5 mM potassium phosphate, read-out: IC50 (μM) Hepes
[9] = HEPES buffer pH 7.4 containing 5 mM potassium phosphate, read-out: IC50 (μM) 5 mM K3 PO4 -2

SMILES	IC50 [4, 8] [µM]	IC50 [4, 9] [µM]	minimal effective concentration [1] [µM]	IC50 ([3]; 312 h) [µM]	also measured
CC(C)(CNC(=O)CN(Cc1ccc(OCc2ccccc2)cc1)C(=O)[C@H](Cc1cnc[nH]1)NC(=O)OCc1ccccc1)c1ccccc1 [Example 15, (S)-[1-{(4-Benzyloxy-benzyl)-[(2-methyl-2-phenyl-propylcarbamoyl)-methyl]-carbamoyl}-2-(3H-imidazole-4-yl)-ethyl]-carbamic Acid Benzyl Ester]	0.12	0.007	0.01 to 0.05	0.19	median tumor burden ([2]; 125 mg/kg/injection SC twice each day, Days 3-17, Day 12, median control tumor burden 1958 mg): 106 mg; inhibition of tumor growth ([2]; 125 mg/kg/injection SC twice each day, Day 12): 95%; tumor growth delay ([2]; 125 and 78 mg/kg/injection dose levels): tumor growth delay also consistent with significant inhibition of tumor growth; tolerability / host toxicity ([2]; 125 and 78 mg/kg/injection dose levels, nude mice): well-tolerated with minimal or no host toxicity
N#CC(CNC(=O)CN(Cc1ccc(OCc2ccccc2)cc1)C(=O)[C@H](Cc1c[nH]cn1)NC(=O)OCc1ccccc1)c1ccccc1 (stereo partly shown) [Example 45]	0.35	0.0024	0.05	–	IC50 [3]: 0.14 µM
O=C(CN(Cc1ccc(OCc2ccccc2)cc1)C(=O)[C@H](Cc1c[nH]cn1)NC(=O)OCc1ccccc1)NCCc1ccccc1Cl [Example 53]	10.6	0.12	0.2	–	IC50 [3]: 12.4 µM
COC(=O)[C@H](CCSC)NC(=O)[C@H](/C=C\[C@@H](/C=C/[C@@H](N)CS)C(C)C)Cc1ccccc1 [Example B1086]	–	–	–	–	tumor growth [5]: inhibit tumor growth
CSCC[C@H](NC(=O)c1ccc(NC[C@@H](N)CS)cc1-c1ccccc1)C(=O)O [FTI276]	–	–	–	–	tumor growth [6]: selectively block tumor growth
CC[C@H](C)[C@@H](CO[C@@H](Cc1ccccc1)C(=O)N[C@@H](CCS(C)(=O)=O)C(=O)OC(C)C)NC[C@@H](N)CS [L-744,832]	–	–	–	–	tumor regression [7]: caused tumor regression

Continued, in another order:

IC50 [4, 8] [µM]	IC50 [4, 9] [µM]	SMILES	minimal effective concentration [1] [µM]	IC50 ([3]; 312 h) [µM]	also measured
0.3	0.002	COc1ccc(CN(CC(=O)NCC(C)(C)c2ccccc2)C(=O)[C@H](Cc2c[nH]cn2)NC(=O)OCc2ccccc2)cc1 [Example 44, (S)-(2-(1H-Imidazole-4-yl)-1-{(4-methoxy-benzyl)-[(2-methyl-2-phenyl-propylcarbamoyl)-methyl]-carbamoyl}-ethyl)-carbamic Acid Benzyl Ester]	0.02	0.36	–
0.62	0.035	Cc1cccc(CN(CC(=O)NCC(C)c2ccccc2)C(=O)[C@H](Cc2c[nH]cn2)NC(=O)OCc2ccccc2)c1 (stereo partly drawn) [Example 47, (S)-(2-(1H-Imidazole-4-yl)-1-{(3-methyl-benzyl)-[(2-phenyl-propylcarbamoyl)-methyl]-carbamoyl}-ethyl)-carbamic Acid Benzyl Ester]	0.05	0.73	–
0.06	0.009	CC(C)(CNC(=O)CN(Cc1ccc(OCc2ccncc2)cc1)C(=O)[C@H](Cc1c[nH]cn1)NC(=O)OCc1ccccc1)c1ccccc1 [Example 49, (S)-(2-(1H-Imidazole-4-yl)-1-{[(2-methyl-2-phenyl-propylcarbamoyl)-methyl]-[4-(pyridin-4-ylmethoxy)-benzyl]-carbamoyl}-ethyl)-carbamic Acid Benzyl Ester]	0.05	0.1	–
0.089	0.001	CC(C)(CNC(=O)CN(Cc1ccc(OCc2cccnc2)cc1)C(=O)[C@H](Cc1c[nH]cn1)NC(=O)OCc1ccccc1)c1ccccc1 [Example 50, (S)-(2-(1H-Imidazole-4-yl)-1-{[(2-methyl-2-phenyl-propylcarbamoyl)-methyl]-[4-(pyridin-3-ylmethoxy)-benzyl]-carbamoyl}-ethyl)-carbamic Acid Benzyl Ester]	0.05	0.27	–
0.88	0.004	CC(CNC(=O)CN(Cc1ccc(-c2ccccc2)cc1)C(=O)[C@H](Cc1c[nH]cn1)NC(=O)OCc1ccccc1)c1ccccc1 (stereo partly drawn) [Example 51, (S)-[1-{Biphenyl-4-ylmethyl-[(2-phenyl-propylcarbamoyl)-methyl]-carbamoyl}-2-(1H-imidazole-4-yl)-ethyl]-carbamic Acid Benzyl Ester]	≥ 0.05	0.25	–
0.48	0.004	CC(C)(CNC(=O)CN(Cc1ccc(-c2ccccc2)cc1)C(=O)[C@H](Cc1c[nH]cn1)NC(=O)OCc1ccccc1)c1ccccc1 [Example 52, (S)-[1-{Biphenyl-4-ylmethyl-[(2-methyl-2-phenyl-propylcarbamoyl)-methyl]-carbamoyl}-2-(1H-imidazole-4-yl)-ethyl]-carbamic Acid Benzyl Ester]	0.05	0.52	–
